Reference: paper PMC10882719 (Frontiers in Neuroscience, 2024)
Read-outs that look alike come from different tables or passages of the source.

Key:
Assay type in all cases: cell-based
[1] = target: T1, 168 GPCRs (Homo sapiens, UniProt P16473); settings: TSHR(L)
T1 construct: host or cells: PathHunter cell lines

[2] = target: T2, 168 GPCRs (Homo sapiens, UniProt P25024)
T2 construct: host or cells: PathHunter cell lines
T2 sequence (P25024 1-350): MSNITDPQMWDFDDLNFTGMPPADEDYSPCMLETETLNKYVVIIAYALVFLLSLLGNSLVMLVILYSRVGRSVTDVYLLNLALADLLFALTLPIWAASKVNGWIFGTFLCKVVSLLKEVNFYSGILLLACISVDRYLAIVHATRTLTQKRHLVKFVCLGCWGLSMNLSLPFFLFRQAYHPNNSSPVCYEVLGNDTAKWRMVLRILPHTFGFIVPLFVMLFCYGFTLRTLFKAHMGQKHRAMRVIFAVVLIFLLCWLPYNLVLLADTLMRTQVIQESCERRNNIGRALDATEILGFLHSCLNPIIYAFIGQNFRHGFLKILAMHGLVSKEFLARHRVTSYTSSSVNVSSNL

[3] = target: T3, 168 GPCRs (Homo sapiens, UniProt P33032); settings: MC5R
T3 construct: host or cells: PathHunter cell lines

[4] = target: T4, 168 GPCRs (Homo sapiens, UniProt P43088); settings: PTGFR
T4 construct: host or cells: PathHunter cell lines

[5] = target: T5, 168 GPCRs (Homo sapiens, UniProt P47901); settings: AVPR1B
T5 construct: host or cells: PathHunter cell lines
T5 sequence (P47901 1-424): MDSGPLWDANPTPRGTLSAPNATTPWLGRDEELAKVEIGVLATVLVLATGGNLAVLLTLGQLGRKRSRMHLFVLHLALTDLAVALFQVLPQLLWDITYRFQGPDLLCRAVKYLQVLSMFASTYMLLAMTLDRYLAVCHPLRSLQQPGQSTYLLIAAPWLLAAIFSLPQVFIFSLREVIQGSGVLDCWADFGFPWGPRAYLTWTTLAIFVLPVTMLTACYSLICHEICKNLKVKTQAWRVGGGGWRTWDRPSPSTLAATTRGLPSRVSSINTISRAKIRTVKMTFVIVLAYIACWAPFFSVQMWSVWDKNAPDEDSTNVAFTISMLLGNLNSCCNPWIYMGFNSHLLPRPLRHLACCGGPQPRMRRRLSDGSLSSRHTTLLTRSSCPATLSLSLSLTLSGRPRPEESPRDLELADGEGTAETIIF

[6] = target: T6, 168 GPCRs (Homo sapiens, UniProt P51686)
T6 construct: host or cells: PathHunter cell lines
T6 sequence (P51686 1-369): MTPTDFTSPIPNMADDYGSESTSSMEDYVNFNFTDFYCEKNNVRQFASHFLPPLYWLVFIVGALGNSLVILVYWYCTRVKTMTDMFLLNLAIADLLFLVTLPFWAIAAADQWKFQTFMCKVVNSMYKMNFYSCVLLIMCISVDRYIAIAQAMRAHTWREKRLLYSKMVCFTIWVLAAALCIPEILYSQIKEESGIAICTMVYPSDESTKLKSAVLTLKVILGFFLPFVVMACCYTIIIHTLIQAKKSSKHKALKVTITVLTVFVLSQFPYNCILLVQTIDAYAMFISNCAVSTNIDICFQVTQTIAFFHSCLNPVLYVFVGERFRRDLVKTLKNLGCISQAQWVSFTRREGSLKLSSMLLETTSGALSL

[7] = target: T7, 168 GPCRs (Homo sapiens, UniProt Q9HC97)
T7 construct: host or cells: PathHunter cell lines

[8] = target: T8, 168 GPCRs (Homo sapiens, UniProt Q9Y5Y4)
T8 construct: host or cells: PathHunter cell lines
T8 sequence (Q9Y5Y4 1-395): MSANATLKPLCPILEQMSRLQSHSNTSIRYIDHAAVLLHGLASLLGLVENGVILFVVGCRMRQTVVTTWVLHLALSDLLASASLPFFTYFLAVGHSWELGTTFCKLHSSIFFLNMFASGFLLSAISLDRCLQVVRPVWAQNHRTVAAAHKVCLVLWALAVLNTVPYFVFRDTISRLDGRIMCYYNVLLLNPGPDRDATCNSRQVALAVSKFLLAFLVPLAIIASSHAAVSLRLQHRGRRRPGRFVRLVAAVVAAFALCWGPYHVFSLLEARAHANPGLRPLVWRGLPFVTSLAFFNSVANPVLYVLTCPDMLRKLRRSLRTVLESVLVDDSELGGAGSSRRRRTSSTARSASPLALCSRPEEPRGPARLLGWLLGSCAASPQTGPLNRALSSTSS

T7 sequence (Q9HC97 whole entry): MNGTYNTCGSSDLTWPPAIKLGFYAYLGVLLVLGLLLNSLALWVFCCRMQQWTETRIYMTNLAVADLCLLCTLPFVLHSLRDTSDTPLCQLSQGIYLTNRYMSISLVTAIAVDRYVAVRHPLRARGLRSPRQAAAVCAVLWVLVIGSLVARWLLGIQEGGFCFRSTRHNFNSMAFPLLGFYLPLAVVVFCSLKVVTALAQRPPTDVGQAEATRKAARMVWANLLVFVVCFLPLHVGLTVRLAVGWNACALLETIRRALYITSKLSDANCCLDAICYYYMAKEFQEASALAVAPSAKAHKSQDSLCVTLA
T4 sequence (P43088 whole entry): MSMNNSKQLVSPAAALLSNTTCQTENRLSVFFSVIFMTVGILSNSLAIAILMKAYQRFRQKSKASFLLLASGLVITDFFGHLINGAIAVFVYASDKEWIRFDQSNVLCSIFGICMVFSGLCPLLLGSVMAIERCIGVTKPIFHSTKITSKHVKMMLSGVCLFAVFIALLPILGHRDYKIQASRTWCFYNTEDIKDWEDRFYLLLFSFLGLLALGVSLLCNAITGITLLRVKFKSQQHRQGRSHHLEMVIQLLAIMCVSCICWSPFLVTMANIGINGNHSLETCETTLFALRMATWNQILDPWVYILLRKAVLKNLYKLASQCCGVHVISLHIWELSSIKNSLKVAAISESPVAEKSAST
T3 sequence (P33032 whole entry): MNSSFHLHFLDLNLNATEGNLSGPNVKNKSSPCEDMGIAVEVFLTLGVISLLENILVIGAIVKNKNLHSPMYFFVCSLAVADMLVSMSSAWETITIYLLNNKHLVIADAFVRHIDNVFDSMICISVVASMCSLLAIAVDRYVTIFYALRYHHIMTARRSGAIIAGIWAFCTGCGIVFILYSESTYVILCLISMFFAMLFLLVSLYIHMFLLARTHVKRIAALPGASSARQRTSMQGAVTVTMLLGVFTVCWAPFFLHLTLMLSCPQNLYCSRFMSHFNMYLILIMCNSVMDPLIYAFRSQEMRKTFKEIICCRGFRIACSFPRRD
T1 sequence (P16473 21-764): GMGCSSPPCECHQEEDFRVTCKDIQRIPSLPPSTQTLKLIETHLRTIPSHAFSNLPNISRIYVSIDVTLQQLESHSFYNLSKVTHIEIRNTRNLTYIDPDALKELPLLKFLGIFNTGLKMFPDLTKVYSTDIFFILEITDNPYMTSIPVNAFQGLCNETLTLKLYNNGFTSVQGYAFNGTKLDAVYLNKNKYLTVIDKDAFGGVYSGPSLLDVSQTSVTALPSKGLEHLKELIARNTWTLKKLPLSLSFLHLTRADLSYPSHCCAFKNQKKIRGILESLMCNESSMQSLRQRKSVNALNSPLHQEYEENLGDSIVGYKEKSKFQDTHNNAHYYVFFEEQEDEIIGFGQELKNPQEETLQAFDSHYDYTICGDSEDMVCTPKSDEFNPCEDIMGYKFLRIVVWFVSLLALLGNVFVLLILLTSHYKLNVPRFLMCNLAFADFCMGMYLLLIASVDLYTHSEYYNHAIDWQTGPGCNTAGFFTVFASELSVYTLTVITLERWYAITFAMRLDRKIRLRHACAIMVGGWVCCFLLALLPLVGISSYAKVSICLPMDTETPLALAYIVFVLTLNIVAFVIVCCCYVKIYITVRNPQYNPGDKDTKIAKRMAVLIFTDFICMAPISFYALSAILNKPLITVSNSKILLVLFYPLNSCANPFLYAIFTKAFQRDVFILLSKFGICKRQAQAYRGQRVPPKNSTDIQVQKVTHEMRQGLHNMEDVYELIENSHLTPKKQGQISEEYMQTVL

Row | SMILES | % Agonist Activity ([1]; Conc 1 uM) [%] | % Antagonist Activity ([1]; Conc 1 uM) [%] | % Agonist Activity ([1]; Conc 10 uM) [%] | % Antagonist Activity ([1]; Conc 10 uM) [%] | % Agonist Activity ([2]; CXCR1, 1 uM) [%] | % Antagonist Activity ([2]; CXCR1, 1 uM) [%] | % Agonist Activity ([2]; CXCR1, 10 uM) [%] | % Antagonist Activity ([2]; CXCR1, 10 uM) [%] | % Agonist Activity ([3]; 1 uM) [%] | % Antagonist Activity ([3]; 1 uM) [%] | % Agonist Activity ([3]; 10 uM) [%] | % Antagonist Activity ([3]; 10 uM) [%] | % Agonist Activity ([4]; Conc 1 uM) [%] | % Antagonist Activity ([4]; Conc 1 uM) [%] | % Agonist Activity ([4]; Conc 10 uM) [%] | % Antagonist Activity ([4]; Conc 10 uM) [%] | % Agonist Activity ([5]; 1 uM) [%] | % Antagonist Activity ([5]; 1 uM) [%] | % Agonist Activity ([5]; 10 uM) [%] | % Antagonist Activity ([5]; 10 uM) [%] | also measured
1 | CNC(C)Cc1ccc2c(c1)OCO2 (stereo not shown) [MDMA, 3,4-Methylenedioxy methamphetamine, reference compound] | -0.6 | -8 | 2.8 | -5 | -0.4 | -2.4 | -0.3 | -4.6 | 2.5 | -0.9 | 1 | 7.1 | -1.5 | -1.5 | -0.4 | 7.8 | -1 | 8.1 | -1.8 | 0.8 | % Agonist Activity ([6]; CCR9, 1 uM): 0.1%; % Antagonist Activity ([6]; CCR9, 1 uM): 5.3%; % Agonist Activity ([6]; CCR9, 10 uM): 0.2%; % Antagonist Activity ([6]; CCR9, 10 uM): 14.5%; % Agonist Activity ([7]; GPR35, 1 uM): 0.3%; % Antagonist Activity ([7]; GPR35, 1 uM): -1.1%; % Agonist Activity ([7]; GPR35, 10 uM): -1.5%; % Antagonist Activity ([7]; GPR35, 10 uM): 4.6%; % Agonist Activity ([8]; CRTH2, 1 uM): -4.1%; % Antagonist Activity ([8]; CRTH2, 1 uM): 19.8%; % Agonist Activity ([8]; CRTH2, 10 uM): -3%; % Antagonist Activity ([8]; CRTH2, 10 uM): 17.2%
2 | CNC(C)C(=O)c1ccc2c(c1)OCO2 (stereo not shown) [methylone] | -1.2 | 6.1 | 0.7 | -6.6 | -0.5 | 12.1 | -0.1 | 3.1 | -7.9 | 1.7 | -8.9 | -6.3 | 0.3 | 0.9 | -0.2 | 0 | -1.2 | 9.8 | -1.1 | 3.5 | % Agonist Activity ([6]; CCR9, 1 uM): -0.5%; % Antagonist Activity ([6]; CCR9, 1 uM): 2.9%; % Agonist Activity ([6]; CCR9, 10 uM): 0.2%; % Antagonist Activity ([6]; CCR9, 10 uM): -9.9%; % Agonist Activity ([7]; GPR35, 1 uM): 2.2%; % Antagonist Activity ([7]; GPR35, 1 uM): 13.2%; % Agonist Activity ([7]; GPR35, 10 uM): 2.5%; % Antagonist Activity ([7]; GPR35, 10 uM): 7.3%; % Agonist Activity ([8]; CRTH2, 1 uM): -5.7%; % Antagonist Activity ([8]; CRTH2, 1 uM): 9%; % Agonist Activity ([8]; CRTH2, 10 uM): -5%; % Antagonist Activity ([8]; CRTH2, 10 uM): 8.9%
